Measured values published in patent US8410112B2, “Compounds useful as inhibitors of ATR kinase” (Vertex Pharmaceuticals Incorporated, priority 2008, dated 2013).

Molecular target: T1, full-length ATR (Homo sapiens, UniProt Q13535)
T1 construct: in the presence of 5 nM full-length ATR
Assay: ATR Inhibition Assay (radioactive-phosphate incorporation)
Assay type: biochemical
Conditions: Ki(app); 5 nM full-length ATR, 10 μM ATP, 800 μM target peptide, 25° C.
In short: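 After a 10-min pre-incubation of compound with 5 nM enzyme at 25 °C, ATP was added to start the reaction (final 10 μM [γ-33P]ATP, 800 μM peptide; Tris/HCl pH 7.5, MgCl2, DTT), which ran 24 h. Incorporated 33P was captured on phosphocellulose filters, and Ki(app) was fitted by non-linear regression.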

T1 sequence (Q13535 whole entry): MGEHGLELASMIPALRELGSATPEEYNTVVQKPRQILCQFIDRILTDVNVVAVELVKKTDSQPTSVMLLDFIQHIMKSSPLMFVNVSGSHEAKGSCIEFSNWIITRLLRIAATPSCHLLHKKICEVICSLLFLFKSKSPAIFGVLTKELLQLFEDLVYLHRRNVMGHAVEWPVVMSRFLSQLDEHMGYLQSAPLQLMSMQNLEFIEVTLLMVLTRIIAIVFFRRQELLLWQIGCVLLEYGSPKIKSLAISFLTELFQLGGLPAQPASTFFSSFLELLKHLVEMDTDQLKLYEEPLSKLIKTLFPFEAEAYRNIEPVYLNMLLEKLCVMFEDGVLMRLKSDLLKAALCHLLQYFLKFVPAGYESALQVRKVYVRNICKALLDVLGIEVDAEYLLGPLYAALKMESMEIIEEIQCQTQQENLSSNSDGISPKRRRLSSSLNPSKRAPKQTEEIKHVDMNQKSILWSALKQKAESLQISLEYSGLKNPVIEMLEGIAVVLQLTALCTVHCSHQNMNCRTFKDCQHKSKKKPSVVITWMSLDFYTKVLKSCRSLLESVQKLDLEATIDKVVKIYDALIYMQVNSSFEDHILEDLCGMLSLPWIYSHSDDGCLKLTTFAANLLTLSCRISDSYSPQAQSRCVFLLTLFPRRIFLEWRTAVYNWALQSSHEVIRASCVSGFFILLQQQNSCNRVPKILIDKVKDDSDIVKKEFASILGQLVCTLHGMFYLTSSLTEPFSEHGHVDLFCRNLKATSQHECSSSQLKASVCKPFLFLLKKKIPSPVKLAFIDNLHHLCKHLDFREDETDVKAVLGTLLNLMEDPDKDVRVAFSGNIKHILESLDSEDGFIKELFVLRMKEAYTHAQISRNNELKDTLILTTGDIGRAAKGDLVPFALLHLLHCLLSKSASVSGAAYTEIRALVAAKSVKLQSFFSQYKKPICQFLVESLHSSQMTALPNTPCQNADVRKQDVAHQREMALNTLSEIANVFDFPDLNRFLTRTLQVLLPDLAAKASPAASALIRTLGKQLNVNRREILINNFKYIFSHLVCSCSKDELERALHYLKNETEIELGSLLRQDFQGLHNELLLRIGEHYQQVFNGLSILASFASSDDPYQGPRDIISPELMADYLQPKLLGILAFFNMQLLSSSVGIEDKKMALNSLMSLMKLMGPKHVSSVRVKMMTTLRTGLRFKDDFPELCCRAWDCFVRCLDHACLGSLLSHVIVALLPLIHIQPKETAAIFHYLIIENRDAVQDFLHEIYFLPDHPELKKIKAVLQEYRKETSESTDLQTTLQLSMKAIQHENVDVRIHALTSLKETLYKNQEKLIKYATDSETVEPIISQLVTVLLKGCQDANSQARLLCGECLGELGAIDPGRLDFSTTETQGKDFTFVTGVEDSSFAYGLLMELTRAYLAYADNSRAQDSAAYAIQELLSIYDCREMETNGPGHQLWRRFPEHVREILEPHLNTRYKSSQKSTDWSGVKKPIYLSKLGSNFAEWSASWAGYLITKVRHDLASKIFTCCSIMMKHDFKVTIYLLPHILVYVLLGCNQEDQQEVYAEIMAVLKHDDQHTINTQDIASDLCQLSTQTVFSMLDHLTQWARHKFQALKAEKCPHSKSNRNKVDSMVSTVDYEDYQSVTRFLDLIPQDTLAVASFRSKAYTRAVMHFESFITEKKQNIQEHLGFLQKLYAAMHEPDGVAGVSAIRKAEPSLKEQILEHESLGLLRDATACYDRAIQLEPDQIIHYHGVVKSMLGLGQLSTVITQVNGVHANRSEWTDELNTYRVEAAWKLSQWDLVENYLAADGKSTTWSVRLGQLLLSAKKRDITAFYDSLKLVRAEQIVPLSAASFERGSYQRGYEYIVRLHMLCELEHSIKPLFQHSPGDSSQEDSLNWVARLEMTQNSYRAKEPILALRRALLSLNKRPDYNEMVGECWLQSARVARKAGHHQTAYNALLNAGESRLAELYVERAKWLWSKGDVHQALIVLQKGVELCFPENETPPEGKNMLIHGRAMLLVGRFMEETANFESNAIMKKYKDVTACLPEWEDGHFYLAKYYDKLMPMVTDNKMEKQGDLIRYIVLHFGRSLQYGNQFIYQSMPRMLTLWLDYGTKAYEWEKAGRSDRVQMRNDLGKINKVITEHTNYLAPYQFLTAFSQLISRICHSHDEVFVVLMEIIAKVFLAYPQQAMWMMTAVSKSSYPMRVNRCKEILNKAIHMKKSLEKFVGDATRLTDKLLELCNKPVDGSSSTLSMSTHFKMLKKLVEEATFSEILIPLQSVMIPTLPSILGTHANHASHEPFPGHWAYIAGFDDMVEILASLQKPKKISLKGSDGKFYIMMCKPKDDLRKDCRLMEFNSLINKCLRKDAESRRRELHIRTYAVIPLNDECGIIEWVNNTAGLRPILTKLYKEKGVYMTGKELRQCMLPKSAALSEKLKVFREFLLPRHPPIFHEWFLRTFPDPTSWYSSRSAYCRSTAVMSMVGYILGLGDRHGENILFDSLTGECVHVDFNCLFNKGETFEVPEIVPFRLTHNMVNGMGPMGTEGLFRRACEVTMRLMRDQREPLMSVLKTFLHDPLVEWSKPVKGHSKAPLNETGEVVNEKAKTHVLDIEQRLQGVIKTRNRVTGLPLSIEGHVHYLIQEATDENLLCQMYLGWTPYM

Ki	Structure (SMILES)
100 to 1000 nM	CCC(=O)N1CCC2(CCN(c3cnc(N)c(-c4nnc(-c5ccc(CNC)cc5)o4)n3)C2)C1 (stereo not shown) [Compound I-342, 1-(7-(5-Amino-6-(5-(4-((methylamino)methyl)phenyl)-1,3,4-oxadiazol-2-yl)pyrazin-2-yl)-2,7-diazaspiro[4.4]nonan-2-yl)propan-1-one]
< 100 nM	CCNCc1ccc(-c2nnc(-c3nc(N4CCCC4)cnc3N)o2)cc1 [Compound I-343, 3-[5-[4-(Aethylaminomethyl)phenyl]-1,3,4-oxadiazol-2-yl]-5-pyrrolidin-1-yl-pyrazin-2-amine]
1000 to 10000 nM	CCNC(=O)[C@@H]1CCCN1c1cnc(N)c(-c2nnc(-c3ccc(CNC)cc3)o2)n1 [Compound I-348, (25)-1-[5-Amino-6-[5-[4-(methylaminomethyl)phenyl]-1,3,4-oxadiazol-2-yl]pyrazin-2-yl]-N-ethyl-pyrrolidine-2-carboxamide]
100 to 1000 nM	CCNC(=O)C1[C@H]2CN(c3cnc(N)c(-c4nnc(-c5ccc(CNC)cc5)o4)n3)C[C@@H]12 (stereo partly drawn) [Compound I-350, (1R,5S)-3-[5-Amino-6-[5-[4-(methylaminomethyl)phenyl]-1,3,4-oxadiazol-2-yl]pyrazin-2-yl]-N-ethyl-3-azabicyclo[3.1.0]hexane-6-carboxamide]
100 to 1000 nM	CCC(=O)N1CCC(c2cnc(N)c(-c3nnc(-c4ccc(CNC)cc4)o3)n2)CC1 [Compound I-353, 1-(4-(5-Amino-6-(5-(4-((methylamino)methyl)phenyl)-1,3,4-oxadiazol-2-yl)pyrazin-2-yl)piperidin-1-yl)propan-1-one]
100 to 1000 nM	CCC(=O)NC1CC[C@H]2CN(c3cnc(N)c(-c4nnc(-c5ccc(CNC)cc5)o4)n3)C[C@@H]12 (stereo partly drawn) [Compound I-355, N-((3aS,6aR)-2-(5-Amino-6-(5-(4-((methylamino)methyl)phenyl)-1,3,4-oxadiazol-2-yl)pyrazin-2-yl)octahydrocyclopenta[c]pyrrol-4-yl)propionamide]
100 to 1000 nM	CCNC(=O)[C@H]1CCCN1c1cnc(N)c(-c2nnc(-c3ccc(CNC)cc3)o2)n1 [Compound I-357, (2R)-1-[5-Amino-6-[5-[4-(methylaminomethyl)phenyl]-1,3,4-oxadiazol-2-yl]pyrazin-2-yl]-N-ethyl-pyrrolidine-2-carboxamide]
100 to 1000 nM	CCC(=O)NC1[C@H]2CN(c3cnc(N)c(-c4nnc(-c5ccc(CNC)cc5)o4)n3)C[C@@H]12 (stereo partly drawn) [Compound I-358, N-[(1S,5R)-3-[5-amino-6-[5-[4-(methylaminomethyl)phenyl]-1,3,4-oxadiazol-2-yl]pyrazin-2-yl]-3-azabicyclo[3.1.0]hexan-6-yl]propanamide]
100 to 1000 nM	CCC(=O)N1CCN(c2cnc(N)c(-c3nnc(-c4ccc(CNC)cc4)o3)n2)[C@H](C)C1 [Compound I-359, (R)-1-(4-(5-Amino-6-(5-(4-((methylamino)methyl)phenyl)-1,3,4-oxadiazol-2-yl)pyrazin-2-yl)-3-methylpiperazin-1-yl)propan-1-one]
100 to 1000 nM	CNCc1ccc(-c2nnc(-c3nc(N4CCC[C@@H]4C)cnc3N)o2)cc1 [Compound I-361, 3-[5-[4-(Methylaminomethyl)phenyl]-1,3,4-oxadiazol-2-yl]-5-[(2S)-2-methylpyrrolidin-1-yl]pyrazin-2-amine]
100 to 1000 nM	CNCc1ccc(-c2nnc(-c3nc(N4CCC[C@H]4C)cnc3N)o2)cc1 [Compound I-362, 3-[5-[4-(Methylaminomethyl)phenyl]-1,3,4-oxadiazol-2-yl]-5-[(2R)-2-methylpyrrolidin-1-yl]pyrazin-2-amine]
100 to 1000 nM	CCC(=O)N1CCN(c2cnc(N)c(-c3nnc(-c4ccc(CNC)cc4)o3)n2)CC12CC2 [Compound I-363, 1-(7-(5-Amino-6-(5-(4-((methylamino)methyl)phenyl)-1,3,4-oxadiazol-2-yl)pyrazin-2-yl)-4,7-diazaspiro[2.5]octan-4-yl)propan-1-one]
100 to 1000 nM	CNCc1ccc(-c2nnc(-c3nc(N4CCC(N5CCCC5=O)CC4)cnc3N)o2)cc1 [Compound I-364, 1-(1-(5-Amino-6-(5-(4-((methylamino)methyl)phenyl)-1,3,4-oxadiazol-2-yl)pyrazin-2-yl)piperidin-4-yl)pyrrolidin-2-one]
100 to 1000 nM	CCC(=O)N(C)C1CCN(c2cnc(N)c(-c3nnc(-c4ccc(CNC)cc4)o3)n2)CC1 [Compound I-365, N-(1-(5-Amino-6-(5-(4-((methylamino)methyl)phenyl)-1,3,4-oxadiazol-2-yl)pyrazin-2-yl)piperidin-4-yl)-N-methylpropionamide]
100 to 1000 nM	CCC(=O)NC1CCN(c2cnc(N)c(-c3nnc(-c4ccc(CNC)cc4)o3)n2)CC1 [Compound I-366, N-(1-(5-Amino-6-(5-(4-((methylamino)methyl)phenyl)-1,3,4-oxadiazol-2-yl)pyrazin-2-yl)piperidin-4-yl)propionamide]

The remaining lines, values behind:

Structure (SMILES)	Ki
CCC(=O)N1CC=C(c2cnc(N)c(-c3nnc(-c4ccc(CNC)cc4)o3)n2)CC1 [Compound I-335, 1-[4-[5-Amino-6-[5-[4-(methylaminomethyl)phenyl]-1,3,4-oxadiazol-2-yl]pyrazin-2-yl]-3,6-dihydro-2H-pyridin-1-yl]propan-1-one]	100 to 1000 nM
CNCc1ccc(-c2nnc(-c3nc(C4=CCC(C)CC4)cnc3N)o2)cc1 (stereo not shown) [Compound I-336, 3-(5-(4-((Methylamino)methyl)phenyl)-1,3,4-oxadiazol-2-yl)-5-(4-methylcyclohex-1-enyl)pyrazin-2-amine]	100 to 1000 nM
CCOC(=O)C1CC1c1cnc(N)c(-c2nnc(-c3ccccc3)o2)n1 (stereo not shown) [Compound I-337, Ethyl 2-(5-amino-6-(5-phenyl-1,3,4-oxadiazol-2-yl)pyrazin-2-yl)cyclopropanecarboxylate]	100 to 1000 nM
NCCC(=O)N1CC=C(c2cnc(N)c(-c3nc4ccccc4[nH]3)n2)CC1 [Compound I-338, 3-amino-1-(4-(5-amino-6-(1H-benzo[d]imidazol-2-yl)pyrazin-2-yl)-5,6-dihydropyridin-1(2H)-yl)propan-1-one]	100 to 1000 nM
CCS(=O)(=O)N1CC=C(c2cnc(N)c(-c3nnc(-c4ccc(CNC)cc4)o3)n2)CC1 [Compound I-339, 5-(1-Ethylsulfonyl-3,6-dihydro-2H-pyridin-4-yl)-3-[5-[4-(methylaminomethyl)phenyl]-1,3,4-oxadiazol-2-yl]pyrazin-2-amine]	100 to 1000 nM
Nc1ncc(N2CCC3(CCNC3)C2)nc1-c1nnc(-c2ccccc2)o1 (stereo not shown) [Compound I-340, 3-(5-Phenyl-1,3,4-oxadiazol-2-yl)-5-(2,7-diazaspiro[4.4]nonan-2-yl)pyrazin-2-amine]	1000 to 10000 nM
CCS(=O)(=O)N1C2CCC1CN(c1cnc(N)c(-c3nnc(-c4ccc(CNC)cc4)o3)n1)C2 [Compound I-341, 5-(8-Ethylsulfonyl-3,8-diazabicyclo[3.2.1]octan-3-yl)-3-[5-[4-(methylaminomethyl)phenyl]-1,3,4-oxadiazol-2-yl]pyrazin-2-amine]	100 to 1000 nM
CNCc1ccc(-c2nnc(-c3nc(N4CCC5(CCN(C)C5=O)CC4)cnc3N)o2)cc1 [Compound I-344, 8-[5-Amino-6-[5-[4-(methylaminomethyl)phenyl]-1,3,4-oxadiazol-2-yl]pyrazin-2-yl]-2-methyl-2,8-diazaspiro[4.5]decan-1-one]	< 100 nM
CCS(=O)(=O)N1CCN(c2cnc(N)c(-c3nnc(-c4ccc(CNC)cc4)o3)n2)C[C@@H]1C [Compound I-345, 5-[(35)-4-Ethylsulfonyl-3-methyl-piperazin-1-yl]-3-[5-[4-(methylaminomethyl)phenyl]-1,3,4-oxadiazol-2-yl]pyrazin-2-amine]	< 100 nM
CNCCC(=O)N1CC=C(c2cnc(N)c(-c3nc4ccccc4[nH]3)n2)CC1 [Compound I-346, 1-(4-(5-Amino-6-(1H-benzo[d]imidazol-2-yl)pyrazin-2-yl)-5,6-dihydropyridin-1(2H)-yl)-3-(methylamino)propan-1-one]	100 to 1000 nM
CNCc1ccc(-c2nnc(-c3nc(N4C[C@@H]5C(C(=O)O)[C@@H]5C4)cnc3N)o2)cc1 (stereo partly drawn) [Compound I-349, (1R,5S)-3-[5-Amino-6-[5-[4-(methylaminomethyl)phenyl]-1,3,4-oxadiazol-2-yl]pyrazin-2-yl]-3-azabicyclo[3.1.0]hexane-6-carboxylic acid]	100 to 1000 nM
CNCc1ccc(-c2nnc(-c3nc(N4C[C@@H]5C(C(=O)N(C)C)[C@@H]5C4)cnc3N)o2)cc1 (stereo partly drawn) [Compound I-351, (1R,5S)-3-[5-Amino-6-[5-[4-(methylaminomethyl)phenyl]-1,3,4-oxadiazol-2-yl]pyrazin-2-yl]-N,N-dimethyl-3-azabicyclo[3.1.0]hexane-6-carboxamide]	100 to 1000 nM
CNCc1ccc(-c2nnc(-c3nc(N4CCC[C@H]4CO)cnc3N)o2)cc1 [Compound I-352, [(2S)-1-[5-Amino-6-[5-[4-(methylaminomethyl)phenyl]-1,3,4-oxadiazol-2-yl]pyrazin-2-yl]pyrrolidin-2-yl]methanol]	100 to 1000 nM
CCS(=O)(=O)NC1CC[C@H]2CN(c3cnc(N)c(-c4nnc(-c5ccc(CNC)cc5)o4)n3)C[C@@H]12 (stereo partly drawn) [Compound I-354, N-((3aS,6aR)-2-(5-Amino-6-(5-(4-((methylamino)methyl)phenyl)-1,3,4-oxadiazol-2-yl)pyrazin-2-yl)octahydrocyclopenta[c]pyrrol-4-yl)ethanesulfonamide]	100 to 1000 nM
CNCc1ccc(-c2nnc(-c3nc(N4CCC[C@@H]4CO)cnc3N)o2)cc1 [Compound I-356, [(2R)-1-[5-Amino-6-[5-[4-(methylaminomethyl)phenyl]-1,3,4-oxadiazol-2-yl]pyrazin-2-yl]pyrrolidin-2-yl]methanol]	100 to 1000 nM
CNCc1ccc(-c2nnc(-c3nc(N4CCC5(CCNC5=O)CC4)cnc3N)o2)cc1 [Compound I-360, 8-(5-Amino-6-(5-(4-((methylamino)methyl)phenyl)-1,3,4-oxadiazol-2-yl)pyrazin-2-yl)-2,8-diazaspiro[4.5]decan-1-one]	100 to 1000 nM
